Source: paper PMC9801504, “Stable Isotopomers of myo-Inositol Uncover a Complex MINPP1-Dependent Inositol Phosphate Network” (ACS Central Science, 2022)

Target: T1, MINPP1 (Homo sapiens, UniProt Q9UNW1)
T1 construct: recombinant, expressed in and purified from E. coli; borders and tags only in the supplement
T1 sequence (Q9UNW1 31-487): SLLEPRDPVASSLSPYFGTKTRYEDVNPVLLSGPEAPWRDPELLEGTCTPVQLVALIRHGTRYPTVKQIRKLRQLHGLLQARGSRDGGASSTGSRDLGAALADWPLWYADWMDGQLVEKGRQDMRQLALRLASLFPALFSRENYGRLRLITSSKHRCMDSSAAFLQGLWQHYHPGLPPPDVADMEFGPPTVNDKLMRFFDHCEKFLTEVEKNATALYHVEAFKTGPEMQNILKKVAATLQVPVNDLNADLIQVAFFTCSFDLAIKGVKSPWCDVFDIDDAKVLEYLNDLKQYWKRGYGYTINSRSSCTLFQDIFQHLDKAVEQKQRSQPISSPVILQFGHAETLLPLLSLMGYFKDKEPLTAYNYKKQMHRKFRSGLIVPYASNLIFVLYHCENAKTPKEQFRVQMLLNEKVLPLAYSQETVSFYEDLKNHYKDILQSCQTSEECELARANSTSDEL
Experiment: 2D NMR of dephosphorylation of [[…]6]InsP5[2OH]
Format: biochemical
Details: read-out: apparent IC50

- IC50: 2 µM
SMILES: O=P(O)(O)O[C@H]1[C@H](OP(=O)(O)O)[C@@H](OP(=O)(O)O)[C@H](OP(=O)(O)O)[C@@H](OP(=O)(O)O)[C@H]1OP(=O)(O)O [InsP6]
